The record followed here is patent US10265329B2, “Altering steroid metabolism for treatment of steroid-dependent disease” (THE CLEVELAND CLINIC FOUNDATION, priority 2015, dated 2019).

For this assay, the target named is T1, CYP17A1 (Homo sapiens, UniProt P05093).
T1 construct: expressed in transfected cells
T1 sequence (P05093 1-508): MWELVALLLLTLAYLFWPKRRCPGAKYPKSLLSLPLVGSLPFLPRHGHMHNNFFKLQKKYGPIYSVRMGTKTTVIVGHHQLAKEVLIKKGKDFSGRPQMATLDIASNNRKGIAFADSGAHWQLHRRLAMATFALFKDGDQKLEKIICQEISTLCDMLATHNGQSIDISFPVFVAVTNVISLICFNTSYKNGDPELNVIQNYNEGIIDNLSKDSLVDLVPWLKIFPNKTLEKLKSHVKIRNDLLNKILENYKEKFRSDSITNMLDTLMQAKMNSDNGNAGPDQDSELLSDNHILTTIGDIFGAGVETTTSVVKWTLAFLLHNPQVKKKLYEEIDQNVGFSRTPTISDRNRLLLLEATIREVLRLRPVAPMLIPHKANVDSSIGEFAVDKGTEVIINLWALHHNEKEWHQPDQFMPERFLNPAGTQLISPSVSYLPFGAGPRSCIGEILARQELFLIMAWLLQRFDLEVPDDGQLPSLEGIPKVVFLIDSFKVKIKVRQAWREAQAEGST
Briefly: Conversion of [3H]-pregnenolone to DHEA in 293 cells expressing CYP17A1. As to conditions: for CYP17A1 inhibition activity relative to Abi and D4A: 293 cells overexpressing CYP17A1, [3H]-pregnenolone to DHEA. In kind it is cell-based. From the text: LNCaP and VCaP cells were purchased from the American Type Culture Collection (Manassas, Va.) and maintained in RPMI-1640 with 10% FBS. LAPC4 cells were kindly provided by Dr. Charles Sawyers (Memorial Sloan Kettering Cancer Center, New York, N.Y.) and grown in Iscove's Modified Dulbecco's Medium with 10% FBS. C4-2 cells were kindly provided by Dr. Leland Chung (Cedars-Sinai Medical Center, Los Angeles, Calif.) and maintained in RPMI-1640 with 10% FBS. All experiments done with LNCaP and VCaP were done in plates coated with poly-DL-ornithine (Sigma-Aldrich, St. Louis, Mo.). A 293 cell line stably expressing human CYP17A1 was generated by transfection with plasmid pcDNA3-CYP17 (a generous gift of Dr. Walter Miller, University of California, San Francisco) and selection with G418. Cell lines was authenticated by DDC Medical (Fairfield, Ohio) and determined to be […] mycoplasma free with primers.
Cell Line Metabolism: Cells were seeded and incubated in 12-well plates with 0.2 million cells/well for ˜24 h and then incubated with a mixture of radioactive ([^3H]-labeled) and non-radioactive androgens (final concentration, 100 nM; ˜1,000,000 cpm/well; PerkinElmer, Waltham, Mass.) at 37° C. Aliquots of medium were collected at the indicated times. Collected medium was treated with 1,000 units of β-glucuronidase (Helix pomatia; Sigma-Aldrich) at 65° C. for 2 h, extracted with 860 μL ethyl acetate:isooctane (1:1), and concentrated under nitrogen gas. Xenograft Metabolism: 10^7 LNCaP or VCaP cells were injected subcutaneously with Matrigel into surgically orchiectomized NSG mice that were implanted with 5 mg 90-day sustained-release DHEA pellets (Innovative Research of American, Sarasota, Fla.). Xenografts were harvested when they reached 1000 mm^3, minced, and cultured in DMEM with 10% FBS at 37° C. with mixture of radioactive ([^3H]-labeled) and non-radioactive androgens, or Abi, when they reached 1000 mm^3. Each xenograft was analyzed in triplicate in at least three independent experiments. Aliquots of medium were collected at the indicated times. […]
Dried samples were reconstituted in 50% methanol and injected into the HPLC. […] Alternatively, dried samples were applied to plastic-backed silica gel plates and separated by thin-layer chromatography (TLC) using a mobile phase of 3:1 chloroform:ethyl acetate, followed by exposure of the plates to a phosphorimager screen and quantitated with a Storm model 860 phosphorimager (Applied Biosystems, Foster City, Calif.). […]
Cell lines, drugs and constructs. […] Cell lines were authenticated by DDC Medical (Fairfield, Ohio) and determined to be mycoplasma free with primers. […]

Take `C[C@]12CC[C@@H](O)C[C@@H]1CC[C@@H]1[C@@H]2CC[C@]2(C)C(c3cccnc3)=CC[C@@H]12` [Compound 3α-OH-5α-Abi, 17-(3-pyridyl)-5α-androsta-16-ene-3α-ol]: the “CYP17A1 inhibition activity relative to Abi and D4A” value is reported as “attenuated”.

With `C[C@]12CCC(=O)C[C@@H]1CC[C@@H]1[C@@H]2CC[C@]2(C)C(c3cccnc3)=CC[C@@H]12` [Compound 5α-Abi, 17-(3-pyridyl)-5α-androsta-16-ene-3-one], the “CYP17A1 inhibition activity relative to Abi and D4A” value is listed as “attenuated”.

With `C[C@]12CCC(=O)C=C1CC[C@@H]1[C@@H]2CC[C@]2(C)C(c3cccnc3)=CC[C@@H]12` [Compound D4A, 17-(3-Pyridyl)androsta-4,16-dien-3-one], under “1 nM drug, 3 h incubation, vehicle 70.1%”, the “% conversion to DHEA” value is 4.2%.
